This is an account of results in EPA's ToxValDB 9.5 (doi:10.2903/j.efsa.2015.4020).

In one data set the test system is Apis mellifera. Particulars: acute, mortality.
The test system of a further data set is Bibionidae. Conditions: chronic/long-term; duration: 28 days.
Another data set relates to Daphnia magna. Particulars: chronic/long-term; duration: 21 days; reproduction.
A further data set concerns Folsomia candida. Particulars: chronic/long-term; duration: 28 days.
The test system of a further data set is Hypoaspis aculeifer. Conditions: chronic/long-term; duration: 28 days.
A further data set deals with Neomysis kadiakensis. Particulars: chronic/long-term; duration: 28 days; mortality.
In another data set the test system is Oryctolagus sp. Conditions: reproduction developmental; body weight.
For the next data set, the system named is Pimephales promelas. Particulars: mortality.
In the next data set the test system is Rattus norvegicus. Particulars: for NOAEL: body weight.
A further data set deals with Aphidius rhopalosiphi. The data set is described as follows: LR50; higher = less toxic. Conditions: not reported; mortality.
The test system of a further data set is Typhlodromus pyri. The data set is described as follows: LR50; higher = less toxic. Conditions: not reported; mortality.

For orientation: NOAEL means the highest tested level that showed no adverse finding. In the case of `O=C1C=C(N(Cc2ccc(Cl)nc2)CC(F)F)CO1` [Flupyradifurone], the LD50 amounted to 123 µg/piece in the data set on Apis mellifera (dermal); 1.2 µg/piece with Apis mellifera (oral, unspecified); 232 mg/kg-day with Colinus virginianus (acute, oral, mortality); 1610 mg/kg-day with Rattus norvegicus (acute, mortality). In addition, the NOEC with Bibionidae came out at 0.00681 mg/L; in the data set on Daphnia magna it was 3.2 mg/L; in the data set with Folsomia candida it was 1.44 mg/kg; in the data set with Hypoaspis aculeifer, 170 mg/kg; in the data set on Neomysis kadiakensis, 0.0132 mg/L; in the data set with Pimephales promelas (chronic/long-term, duration: 35 days), 4.41 mg/L. This molecule came in with an NOEC in the data set on Tagia sp. (chronic/long-term, duration: 56 days) of 1.5 mg/kg. The LC50 is greater than 470 mg/kg-day in the data set with Colinus virginianus (acute, oral, diet, mortality); greater than 70.5 µg/mL in the data set with Pimephales promelas (acute, duration: 96 hours); 186 mg/kg in the data set on Tagia sp. (acute, duration: 14 days, mortality). Moreover, the no-observed-adverse-effect level (NOAEL) with Colinus virginianus (reproduction developmental) stood at 14 mg/kg-day; with Oryctolagus sp., 15 mg/kg-day; with Rattus norvegicus (chronic), 6.4 mg/kg-day; in the data set with Rattus norvegicus (reproduction developmental), 6.4 mg/kg-day. The LR50 in the data set on Aphidius rhopalosiphi was less than 0.5 g/ha; in the data set with Typhlodromus pyri, 17 g/ha.
